Experimental data published in patent publication EP1480941B1, “UREA DERIVATIVES AS HIV ASPARTYL PROTEASE INHIBITORS” (priority 2002, dated 2003).
Like-named read-outs stand apart in the source and are kept apart here.

Target: HIV protease (Human immunodeficiency virus type 1 group M subtype B, UniProt P04585)
Assay: Enzymatic (fluorometric FRET) assay for determining the inhibition constant (Ki)
Assay type: biochemical
Details: EDANS/DABCYL substrate, equation of Henderson
From the text: Enzymatic assay for determining the inhibition constant (Ki) of synthetic compounds targeting the HIV protease
This is a fluorometric assay based on the cleavage by protease of a substrate carrying a donor group (EDANS) and an acceptor group (DABCYL) on each side of the cleavage site, interacting together through fluorescence resonance energy transfer (FRET) as described by Matayoshi et al. (Science 247:[…], 1990).
After calculation of Vo and Vi, the inhibition constant (Ki) of the compound is determined using the equation of Henderson: (Vo)/(Vi) = 1 + ([I])/(Kiapp) Where Ki = (Kiapp)/((1 + [S])/(Km)) [formula] where Vo = the enzyme's initial velocity Vi = the enzyme velocity in the presence of the inhibitory compound, [I] = inhibitor concentration, [S] = substrate concentration, Km = Michaelis-Menten constant and Kiapp = apparent Ki
Graphs are traced and the Ki determined using GraphPad Prism software v. 3.0.

| Compound | Ki (Ki) [nM] | Ki (read-out: Ki) [nM] | other results |
| --- | --- | --- | --- |
| COc1cccc(CN(Cc2ccc3c(c2)OCO3)C(=S)NCCCC[C@@H](CO)N(CCC(C)C)S(=O)(=O)c2ccc(N)cc2)c1 [Example 105, (2S) 2-N-(4-aminobenzenesulfonyl)-2-N-(3-methylbutyl)-6-N-[N'-(3-methoxybenzyl)-N'-piperonylaminothiocarbonyl]-2,6-diaminohexanol] | 2.6 |  |  |
| CC(C)CCN([C@H](CO)CCCCNC(=O)N(Cc1ccc(F)cc1)Cc1ccc2c(c1)OCCO2)S(=O)(=O)c1ccc(N)cc1 [Example 103, (2S) 2-N-(4-aminobenzenesulfonyl)-2-N-(3-methylbutyl)-6-N-[N'-(4-fluorobenzyl)-N'-(3,4-ethylenedioxy)benzylaminocarbonyl]-2,6-diaminohexanol] | 5.4 |  |  |
| COc1ccc(CN(Cc2ccc3c(c2)OCO3)C(=S)NCCCC[C@@H](CO)N(CCC(C)C)S(=O)(=O)c2ccc(N)cc2)cc1 [Example 109, (2S) 2-N-(4-aminobenzenesulfonyl)-2-N-(3-methylbutyl)-6-N-[N'-(4-methoxybenzyl)-N'-piperonylaminothiocarbonyl]-2,6-diaminohexanol] | 3.6 |  |  |
| CC(C)CN([C@H](CO)CCCCNC(=O)N(Cc1ccccc1)Cc1ccsc1)S(=O)(=O)c1ccc(N)cc1 [Example 76, (2S) 2-N-(4-aminobenzenesulfonyl)-2-N-isobutyl-6-N-[N'-benzyl-N'-(3-thiophenemethyl)aminocarbonyl]-2,6-diaminohexanol] |  | 11 |  |
| Cc1ccc(S(=O)(=O)N(CC(C)C)[C@@H](CCCCNC(=O)N(CC(C)C)CC(C)C)C(=O)O)cc1 [Example 35, Nα-isobutyl-Nα-(4-methylbenzenesulfonyl)-N∈-(N',N'-diisobutylaminocarbonyl)-L-lysine] |  | > 300 |  |
| CC(C)CN([C@H](CO)CCCCNC(=O)N(Cc1ccncc1)Cc1ccncc1)S(=O)(=O)c1ccc(N)cc1 [Example 51, (2S) 2-N-(4-aminobenzenesulfonyl)-2-N-isobutyl-6-N [N',N'-di-(4-picolyl)aminocarbonyl]-2,6-diaminohexanol] |  | > 300 |  |
| COc1cccc(OC)c1CNC(=O)NCCCC[C@@H](CO)N(CC(C)C)S(=O)(=O)c1ccc(N)cc1 [Example 78, (2S) 2-N-(4-aminobenzenesulfonyl)-2-N-isobutyl-6-N-(N'-2,6-dimethoxybenzylaminocarbonyl)-2,6-diaminohexanol] |  | > 300 |  |
| Cc1ccc(S(=O)(=O)N(CC(C)C)[C@@H](CCCCNC(=O)N(Cc2ccccc2)Cc2cccc(N)c2)C(=O)O)cc1 [Example 58, Nα-isobutyl-Nα-(4-methylbenzenesulfonyl)-N∈-[N'-(3-aminobenzyl)-N'-benzylaminocarbonyl]-L-lysine] |  | > 300 |  |
| COC(=O)[C@H](CCCCNC(=O)NCCc1ccccn1)N(CC(C)C)S(=O)(=O)c1ccc(C)cc1 [Example 19, Nα-isobutyl-Nα-(4-methylbenzenesulfonyl)-N∈-[(2'-pyridyl)ethylaminocarbonyl]-L-lysine methyl ester] | > 300 |  |  |
| Cc1ccc(S(=O)(=O)N(CC(C)C)[C@H](CO)CCCCNC(=O)N(Cc2ccncc2)Cc2ccncc2)cc1 [Example 46, (2S) 2-N-isobutyl-2-N-(4-methylbenzenesulfonyl)-6-N-[N',N'-di-(4-picolyl)aminocarbonyl]-2,6-diaminohexanol] |  | > 300 |  |
| CCC(C)CN([C@H](CO)CCCCNC(=O)N(Cc1ccccc1)Cc1ccc2c(c1)OCO2)S(=O)(=O)c1ccc(N)cc1 (stereo partly drawn) [Example 98, (2S) 2-N-(4-aminobenzenesulfonyl)-2-N-(2-methylbutyl)-6-N-[N'-benzyl-N'-piperonylaminocarbonyl]-2,6-diaminohexanol] |  |  | Ki: 13 nM |
| Cc1ccc(S(=O)(=O)N(CC(C)C)[C@@H](CCCCNC(=O)N[C@H](Cc2ccccc2)C(N)=O)C(=O)O)cc1 [Example 9, Nα-isobutyl-Nα-(4-methylbenzenesulfonyl)-N∈-[D-phenylalanylamide-N'α-carbonyl]-L-lysine] | 131 |  |  |
